The text below walks through data of patent publication US10821104B2, “Five-membered heterocyclic amides WNT pathway inhibitor” (SUZHOU SINOVENT PHARMACEUTICALS CO., LTD., priority 2015, dated 2020).

Data set [1] has as its system zebrafish axis formation. The data set can be described thus: Effect of compounds on axis formation of zebrafish (zebrafish phenotype screening). In kind it is in vivo, Zebrafish Danio rerio. The following applies: Danio rerio; embryos treated from 3 h to 48 h post fertilization; concentration at which 50% of axis formation is inhibited; read-out: IC50, inhibition of axis formation of zebrafish. As to the method:
Method: Zebrafish embryos were collected after natural spawning. Embryos were treated from the 16 cell stage (3 hours post fertilization) with different concentration series 100 μM˜0.001 μM of the compound in 1% DMSO/fish water or with DMSO equivalent. The zebrafish were placed in a 6-well microplate at a density of 20 zebrafish per well with 3 mL of fish water. Zebrafish were incubated at 28.5° C. in the dark until 48 h post fertilization, then anesthetized, and imaged under a dissecting stereomicroscope installed with a high-speed video camera (JVC, Japan). Quantitative length of axis was performed with NIS-Elements D 3.1 soft and pixels data were expressed as mean±SEM. The effect of compound on axis formation of zebrafish was calculated based on the following formula: Inhibition on axis growth (%)=[1−Pixel(compound)/Pixel(vehicle)]×100%
(§1) Inhibition curves were generated using GraphPad Prism 6.0 (GraphPad Software Inc., San Diego Calif.) and IC50 was determined with logistic regression.

In data set [2] the test system is regeneration of zebrafish tailfin resected. In words: Effect of compounds on tailfin regeneration of zebrafish (resected caudal fin). In kind it is in vivo. The following applies: Danio rerio; 3 d.p.f. zebrafish with resected caudal fins treated until 7 d.p.f.; read-out: IC50, inhibition of regeneration of zebrafish tailfin resected. The method, then:
Method: Three days post fertilization (d.p.f) zebrafish with resected caudal fins were placed in water containing 1% DMSO carrier or compounds (10 μM˜0.001 μM) until 7 d.p.f. The zebrafish were placed in a 6-well microplate at a density of 15 zebrafish per well with 3 mL of fish water. Zebrafish were incubated at 28.5° C. in the dark until 7 d.p.f., then anesthetized, and imaged under a dissecting stereomicroscope installed with a high-speed video camera (JVC, Japan). Quantitative length of regeneration of tailfin was performed and pixels data were expressed as mean±SEM. The effect of compound on regeneration of tailfin of zebrafish was calculated based on the following formula: Drug inhibition on regeneration of tailfin (%)=[1−Pixel(compound)/Pixel(vehicle)]×100%.
as §1

Data set [3] relates to Wnt/β-catenin reporter (Super 8×TOPFLASH) in HEK293 cells cocultured with L-Wnt3a-expressing cells. In words: 293T/TOPLUC-Wnt3a luciferase reporter gene assay. In kind it is cell-based. The settings on record: Homo sapiens, HEK293, 24 h incubation, read-out: IC50, inhibition of Wnt/β-catenin reporter gene readout. The method, then:
In this assay, HEK293 cells harboring a luciferase-based Wnt/β-catenin reporter (Super 8×TOPFLASH) were cocultured with L-Wnt3a-expressing cells. 293T/TOPLUC-Wnt3a were incubated with small molecules for 24 h. The level of the Luciferase reporter gene was used as an indicator for Wnt ligand-driven, LEF/TCF-dependent transcriptional activities. IC50 is defined as the compound concentration at which 50% of luciferase reporter activity is inhibited.
Results: REX-P compounds were investigated on CrownBio Cell plateform to assay the activity of inhibiting Wnt/β-catenin reporter activity, results are shown in Table 3.

Data set [4] in a line: In vivo PK in Balb/c mice. As to the method:
(§2) Metabolic stability and pharmacokinetic characteristics of REX-P-7 were detected in human and mouse liver microsomes and in Balb/c mice, respectively.
Method of PK experiment: 18 male Balb/c mice were divided into 2 groups, 9 animals in each group. Group 1 was administered intravenously with REX-P-7 at a dose of 5 mg/kg. Group 2 was administered orally with REX-P-7 at a dose of 10 mg/kg. Blood samples (100 μL) for PK analysis were collected into EDTA microtainers (K2 EDTA, the final concentration in blood sample is 0.25 mg/mL) from retro orbital plexus at pre-dose, 0.083, 0.25, 0.5, 1, 2, 4, 8, 24 hours post-dosing for PO and IV groups. Immediately after collection, blood collection tubes were gently inverted at least 5 times, ensuring complete mixing, then immediately placed on ice. The blood was centrifuged at 8000 rpm for 5 min at 4° C. to separate the plasma from the blood cells. After separation, 35 μL plasma was transferred into clean tube labeled by the compound name, animal number and timepoint. Plasma was stored at −80° C. until analysis.

A short description of data set [5]: Metabolic stability in human liver microsomes. Format: in vitro ADME.
Text: as §2
(Liver microsomes are vesicles of endoplasmic reticulum, rich in cytochrome P450 enzymes.)

Data set [6] can be described thus: Metabolic stability in mouse liver microsomes. In kind it is in vitro ADME.
Text: as §2

[7] abbreviates: Balb/c mice, summary of Table 4.
[8] abbreviates: IV dose 5 mg/kg, male Balb/c mice, plasma.
Setting [9] is: PO dose 10 mg/kg, male Balb/c mice, plasma.

Each structure is given as a SMILES string. pIC50: −log10 of the molar value.

One may read the half-life as the time in which the quantity being followed falls by half. A higher half-life goes with slow loss. In general, bioavailability refers to the share of a dose that reaches the circulation, judged against a reference dose that is usually intravenous. `Cc1cc(-c2ncc(CNC(=O)c3cc(-c4ccccc4)on3)cc2C)ccn1` [REX-P-7, N-((2′,3-dimethyl-[2,4′-bipyridin]-5-yl)methyl)-5-phenylisoxazole-3-carboxamide]: the pIC50 is 7.62 in data set [1], 7.33 in data set [2] and 9.16 in data set [3]. Also, the “bioavailability (in words)” value in data set [4] (setting [7]) is on record as “good bioavailability”. For the same molecule, in data set [4] (setting [7]), the “half-life (in words)” value is “good half-life”. Further, the “CL (/F)” value in data set [4] (IV dose 5 mg/kg, male Balb/c mice) stood at 2.83 mL/min/kg. The results for the AUC0-t/Dose in data set [4] (setting [8]) and in data set [4] (setting [9]) were 5770 ng·h/mL and 2922 ng·h/mL, respectively. The Cmax/Dose is listed as 4167 ng/mL in data set [4] (setting [8]) and 1923 ng/mL in data set [4] (setting [9]). The half-life in data set [4] (mouse, plasma, IV dose 5 mg/kg, male Balb/c mice) is 1.68 h; in data set [4] (mouse, plasma, PO dose 10 mg/kg, male Balb/c mice), 1.62 h. In data set [4] (mouse, plasma, PO 10 mg/kg vs IV 5 mg/kg, male Balb/c mice), this molecule had a bioavailability of 50.6%. Further, the “Eh % (HLM)” value in data set [5] came to 56.7%. Moreover, the “Eh % (MLM)” value in data set [6] turned out to be 65%.
